{"source": "paper PMC7906020", "about": "“Trp-Containing Antibacterial Peptides Impair Quorum Sensing and Biofilm Development in Multidrug-Resistant Pseudomonas aeruginosa and Exhibit Synergistic Effects With Antibiotics” (Frontiers in Microbiology, 2021)", "assay_type_in_all_cases": "cell-based, Pseudomonas aeruginosa", "key": {"[1]": {"system": "MRPA0108 biofilm formation", "settings": "peptide at 1 × MIC, 24 h, 37°C; crystal violet OD 590 nm; vs control", "procedure": "The biofilm formation of the MRPA0108 strain was assessed as described previously ([Shang et al., 2017]). Briefly, 50 μl of a mid-log growth-phase bacterial solution (1 × 10^5 CFU/ml) was placed into a 96-well microtiter plate and incubated overnight with 50 μl of peptide at a final concentration of 1/8 × MIC, 1/4 × MIC, 1/2 × MIC, or 1 × MIC. LB liquid medium and erythromycin were used as negative and positive controls, respectively. After 24 h of incubation at 37°C, planktonic bacteria were carefully removed, and the biofilms were fixed with formaldehyde for 15 min and stained with 0.1% (w/v) crystal violet (CV) dye for 5 min. Before being quantified by reading the absorbance at 590 nm in a microtiter plate reader (Varioskan Flash Microplate Reader, Thermo Fisher Scientific Co., Beijing), biofilms were washed and solubilized with 95% ethanol. The OD 590 nm was determined as a measure of biofilm biomass."}, "MRPA0108 cells": {"system": "MRPA0108 cells", "assay": "Intracellular antibiotic assay by HPLC", "settings": "RP-HPLC of cell lysate", "procedure": "Mid-log growth-phase bacteria were diluted to 1 × 10^8 CFU/ml and treated with I1W or L12W at concentrations ranging from 3.13 to 50 μM for 12 h at 37°C. After induction, the cultures were harvested by centrifugation at 12,000 rpm for 2 min, washed three times with PBS buffer (pH 7.2), and then incubated with lysozyme (20 mg/ml) at 37°C for 1 h in a water bath. After centrifugation at 12,000 rpm for 5 min, the supernatant of the cell lysates was collected, added to methanol (1:3) and vortexed to precipitate proteins. After recentrifugation at 12,000 rpm for 5 min, the supernatant was measured by using HPLC with a mobile phase of 0.1% trifluoroacetic acid/methanol (92:8, v/v) and a flow rate of 0.7 ml/min."}, "[2]": {"system": "β-lactamase activity in MRPA0108 cells", "assay": "β-Lactamase activity assay (nitrocefin kit) in treated cells", "settings": "compared to control", "procedure": "β-lactamase activity was measured by using a β-lactamase assay kit (YIASEN Biotech Co., Ltd., Shanghai, China) according to the manufacturer’s instructions. Briefly, mid-log growth-phase bacteria were diluted to 1 × 10^8 CFU/ml and treated with I1W or L12W at concentrations ranging from 3.13 to 50 μM for 12 h at 37°C. After induction, the cultures were harvested by centrifugation at 5,000 rpm at 4°C, washed three times with PBS buffer (pH 7.2), and then resuspended in the same buffer. The cells were sonicated on ice for 15 min, and the cell lysates containing β-lactamase were collected by centrifugation at 12,000 rpm for 30 min at 4°C. Fifty microliters of the prepared β-lactamase-containing lysates was mixed with 50 μl of assay buffer containing nitrocefin and reacted at room temperature in a dark environment for 20 min. Nitrocefin hydrolysis was measured spectrophotometrically at 490 nm. Concurrently, the total protein content was determined with a Bradford assay using the same supernatant. One milliunit of β-lactamase is defined as 1 nanomole of nitrocefin hydrolyzed per minute per microgram of protein."}, "[3]": {"system": "pyocyanin production in MRPA0108", "assay": "Pyocyanin production assay", "settings": "peptide at 1/4 × MIC, 24 h; OD 520 nm; vs untreated control; triplicate", "procedure": "The culture supernatant was obtained after centrifugation at 12,000×g for 10 min. (1) LasB elastase activity was measured using elastin-Congo red (ECR) as the substrate, as described by [Pattnaik et al. (2018)]. Briefly, 100 μl of the culture supernatant was added to 900 μl of ECR buffer (100 mM Tris-HCl, 1 mM CaCl2, pH 7.5) containing 10 mg of ECR and then incubated with shaking at 37°C for 18 h. Then, 100 μl of 0.12 M EDTA was added to stop the reaction. The insoluble ECR was removed by centrifugation, and the supernatant absorbance was measured at 495 nm. The optical density (OD) 495 nm/OD 600 nm represents the elastase activity. (2) LasA protease activity was measured as follows ([Pattnaik et al., 2018]): first, the culture supernatant was filtered to remove the bacterial cells, and then 150 μl of sterile-filtered supernatant was added to 2% azocasein (prepared in 50 mM Tris-HCl) and incubated for 4 h at 37°C. […] After centrifugation at 10,000 rpm for 10 min, 1 M NaOH was added to the supernatant, and the relative protease activity was measured at OD 440 nm. (3) The pyocyanin assay was based on the absorbance of excreted pyocyanin at 520 nm in an acidic solution ([Kong et al., 2005]). […] The OD 520 nm was measured to evaluate the change in pyocyanin content. […] The absorbance was measured at 420 nm. (5) The level of C4-HSL was quantified by GC-MS as previously described ([Guo et al., 2012])."}, "[4]": {"system": "exopolysaccharide production in MRPA0108", "assay": "Exopolysaccharide determination, phenol-H2SO4 method", "settings": "phenol-H2SO4, 490 nm", "procedure": "Exopolysaccharides were determined using the phenol-H2SO4 method. Briefly, after incubation, the cultures were centrifuged at 10,000 rpm for 15 min, and the pellets were resuspended in high-salt buffer (10 mM KPO4, 5 mM NaCl, 2.5 mM MgSO4, pH 7.0), followed by recentrifugation at 10,000 rpm for 30 min. The resulting supernatant was mixed with three volumes of chilled ethanol (100%) and incubated overnight at 4°C. The precipitated exopolysaccharide was added to a mixture containing cold phenol and H2SO4, and the absorbance of the solution was measured at 490 nm. Alginate content was determined using the H2SO4-carbazole method. Briefly, after incubation, the precooled cultures were mixed with an H2SO4 solution (4:1) and vortexed in ice water, and then 0.2% carbazole dissolved in ethanol was added. The mixture was revortexed and incubated at 55°C for 30 min, and the OD 530 nm was measured."}, "[5]": {"settings": "range over peptide 3.13 to 50 μM, 12 h 37°C"}}, "note": "Peptide text beside a SMILES is read from it."}
{"compound": "CC[C@H](C)[C@H](NC(=O)[C@H](CCCCN)NC(=O)[C@H](CO)NC(=O)[C@H](CC(C)C)NC(=O)[C@@H](NC(=O)[C@H](CCCCN)NC(=O)[C@H](CCCCN)NC(=O)[C@@H](N)Cc1c[nH]c2ccccc12)[C@@H](C)CC)C(=O)N[C@@H](CCCCN)C(=O)N[C@@H](CCCCN)C(=O)N[C@@H](CC(C)C)C(=O)N[C@@H](CC(C)C)C(=O)N[C@@H](CCCCN)C(N)=O", "note": "[I1W] (H-WKKILSKIKKLLK-NH2; N-terminus and C-terminus assumed)", "values": [{"measurement": "reduction of biofilm formation", "setting": "[1]", "value": 53, "unit": "%"}, {"measurement": "increase of ceftazidime content in MRPA0108 cells", "setting": "MRPA0108 cells; peptide at its MIC", "value": 19, "unit": "%"}, {"measurement": "increase of levofloxacin content in MRPA0108 cells", "setting": "MRPA0108 cells; peptide at its MIC", "value": 1, "unit": "%"}, {"measurement": "increase of piperacillin content in MRPA0108 cells", "setting": "MRPA0108 cells; peptide at its MIC", "value": 17, "unit": "%"}, {"measurement": "increase of ceftazidime content in MRPA0108 cells", "setting": "MRPA0108 cells; [5]", "value": "7.5-100%"}, {"measurement": "increase of levofloxacin content in MRPA0108 cells", "setting": "MRPA0108 cells; [5]", "value": "0.01–22%"}, {"measurement": "increase of piperacillin content in MRPA0108 cells", "setting": "MRPA0108 cells; [5]", "value": "8–80%"}, {"measurement": "effect on β-lactamase activity, peptide alone", "setting": "[2]; peptide alone at concentrations greater than 12.5 μM", "value": "reduced β-lactamase activity"}, {"measurement": "effect on β-lactamase activity, peptide alone", "setting": "[2]; peptide alone at low concentrations", "value": "no effect on β-lactamase activity"}, {"measurement": "reduction of pyocyanin production", "setting": "[3]", "value": 73.7, "unit": "%"}, {"measurement": "reduction of exopolysaccharide production", "setting": "[4]; peptide at 1/4 × MIC, overnight 37°C", "value": 26.3, "unit": "%"}, {"measurement": "reduction of exopolysaccharide production", "setting": "[4]; peptide at 1 × MIC", "value": 67.3, "unit": "%"}, {"measurement": "reduction of exopolysaccharide production", "setting": "[4]; peptide concentration increased onefold from 1/4 × MIC", "value": 42.6, "unit": "%"}]}
